Entries after “also recorded” stand apart in the source; their conditions may differ.
Tests used:
[1] = system: luciferase-modified U87MG tumor cells; test: In vivo bioluminescent imaging of intracranial tumor growth, orthotopic GBM mouse model; details: imaging days 13, 20 and 30; vs saline/vehicle
[2] = system: luciferase-modified U87MG tumor cells; test: Ex vivo T1-weighted MRI tumor volume, orthotopic GBM mouse model; assay type: in vivo; details: day 30, ex vivo MRI; vs saline
Experimental: Athymic nude female mice (Charles Rivers Laboratories and Envigo), 6 to 8 weeks of age, were anesthetized with a ketamine/xylazine cocktail solution (100 mg/kg; 10 mg/kg). Then, mice were secured in a stereotactic head frame and a midline 1 cm incision over the scalp was made. Natural tears lubricant was applied to the eyes. For each mouse, 5 × 10^6 U87MG cells in 5 µL serum free Dulbecco’s Modified Eagle Medium (DMEM) tagged with a luciferase […] gene were implanted into the right hippocampus using a 10 µL Hamilton syringe at the following coordinates, in reference to the bregma: 1.5 mm lateral, 1.5 mm posterior and 3.5 mm in depth; the needle was lowered to 3.5 mm and pulled up by 1 mm, prior to the injection (Marrero et al., 2014) (FIG. 1B). Rectal and cranial temperatures will be maintained at 36-37° C. during surgical procedure. […]
Treatment was administered starting on day 13 after implantation, and intracranial tumor growth was quantified using in vivo bioluminescent imaging on days 13 (before treatment) and then 20 and 30. […]
Cheshire image processing software (Hayden Image/Processing Group, Waltham, MA), was used to manually outline whole brain and tumor volumes enhanced by Gd deposition. […] Whole brain and tumor volumes (mm^3) were extracted and analyzed (Jeffes et al., 2005; Blasiak et al., 2013). […]

[3] = Physiological variables (body weight, temperature, survival) in GBM mouse model; assay type: in vivo
Experimental: Athymic nude female mice (Charles Rivers Laboratories and Envigo), 6 to 8 weeks of age, were anesthetized with a ketamine/xylazine cocktail solution (100 mg/kg; 10 mg/kg). Then, mice were secured in a stereotactic head frame and a midline 1 cm incision over the scalp was made. Natural tears lubricant was applied to the eyes. […] Rectal and cranial temperatures will be maintained at 36-37° C. during surgical procedure. The incision was closed using black monofilament nylon 5.0 sterile sutures and the area was cleaned with betadine solution. The mice were placed in individual cages and observed daily for weight, temperature, and locomotor changes. Mice were perfused at the end of the 30-day survival, brains removed and ex vivo MRI imaging were conducted.
Mice were anesthetized with a ketamine/xylazine cocktail solution (100 mg/kg; 10 mg/kg) and secured in a stereotactic head frame. A midline, 1 cm incision was made over the scalp. Natural tear lubricant was applied to the eyes. For each mouse, 5 × 10^6 U87MG cells in 5 µL serum-free Dulbecco’s Modified Eagle Medium (DMEM) were injected into the right hippocampus using a 10 µL Hamilton syringe at the following coordinates related to the bregma: 1.5 mm lateral, 1.5 mm posterior, and 3.5 mm in depth. […]

recurrent GBM = details: single agent or in combination with chemotherapy; cited from earlier work
P2×2 = molecular target: T1, P2×2 (Homo sapiens, UniProt Q9UBL9); details: cited from earlier work
T1 sequence (Q9UBL9 1-471): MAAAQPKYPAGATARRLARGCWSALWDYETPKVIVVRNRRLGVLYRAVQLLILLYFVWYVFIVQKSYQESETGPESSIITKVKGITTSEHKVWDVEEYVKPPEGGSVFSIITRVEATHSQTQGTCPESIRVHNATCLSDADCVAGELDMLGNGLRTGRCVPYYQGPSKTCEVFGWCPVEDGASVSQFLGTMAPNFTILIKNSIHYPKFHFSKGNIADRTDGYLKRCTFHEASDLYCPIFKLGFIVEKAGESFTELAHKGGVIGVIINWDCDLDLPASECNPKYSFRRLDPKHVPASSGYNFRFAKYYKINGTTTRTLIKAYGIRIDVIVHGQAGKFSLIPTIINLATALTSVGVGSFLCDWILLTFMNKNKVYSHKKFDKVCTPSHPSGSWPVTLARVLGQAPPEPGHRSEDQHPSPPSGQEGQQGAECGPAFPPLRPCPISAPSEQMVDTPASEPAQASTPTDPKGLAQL

P2Xs = details: cited from earlier work
P2Y 2 = P2Y 2 (Homo sapiens, UniProt P41231); details: cited from earlier work
P2Y4 = P2Y4 (Homo sapiens, UniProt P51582); details: cited from earlier work
Chain of P2Y4 (P51582 whole entry, species assumed): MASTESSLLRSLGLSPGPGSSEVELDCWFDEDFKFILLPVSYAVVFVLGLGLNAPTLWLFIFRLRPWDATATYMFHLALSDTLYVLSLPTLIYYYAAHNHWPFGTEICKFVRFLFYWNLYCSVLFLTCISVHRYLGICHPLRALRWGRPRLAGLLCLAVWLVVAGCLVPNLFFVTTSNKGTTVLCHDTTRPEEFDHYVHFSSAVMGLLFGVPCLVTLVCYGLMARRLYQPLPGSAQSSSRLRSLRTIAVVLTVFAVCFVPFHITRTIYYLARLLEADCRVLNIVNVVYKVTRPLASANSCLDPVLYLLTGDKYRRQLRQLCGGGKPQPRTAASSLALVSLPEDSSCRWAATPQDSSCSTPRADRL

Chain of P2Y 2 (P41231 whole entry, species assumed): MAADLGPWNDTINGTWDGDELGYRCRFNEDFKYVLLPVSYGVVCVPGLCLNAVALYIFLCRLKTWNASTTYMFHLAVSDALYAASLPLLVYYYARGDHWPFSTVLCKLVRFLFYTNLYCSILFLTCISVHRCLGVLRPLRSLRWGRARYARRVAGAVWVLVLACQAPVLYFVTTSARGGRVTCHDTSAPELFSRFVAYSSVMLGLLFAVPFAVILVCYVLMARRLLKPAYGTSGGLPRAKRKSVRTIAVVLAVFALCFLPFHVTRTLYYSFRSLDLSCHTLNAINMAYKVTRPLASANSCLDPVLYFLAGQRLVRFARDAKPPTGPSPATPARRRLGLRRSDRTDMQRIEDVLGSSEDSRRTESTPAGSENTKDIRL

Compound	Bioluminescent tumor growth/size vs vehicle (in words) [1]	MRI (T1WI) tumor volume reduction compared to vehicle [2] [%]	MRI (T1WI) tumor volume vs vehicle (in words) [2]	Survival ([3]; 30-day survival period)	Change in rectal temperature compared to vehicle ([3]; during the 30 days of survival)	Radiographic response rate (recurrent GBM)	pEC50 (P2×2) (P2×2)	pEC50 (P2Xs) (P2Xs)	pEC50 (P2Y 2) (P2Y 2)	pEC50 (P2Y4) (P2Y4)
Avastin: recombinant humanized anti-VEGF monoclonal antibody	reduced tumor size; also recorded: repress orthotopic GBM; also recorded: significantly reduced tumorigenesis; also recorded: significant reduction in growth and size	67	reduced GBM tumor volumes	improved survival	No significant changes	up to 40%	–	–	–	–
Cc1ccc(C(=O)Nc2ccc(S(=O)(=O)O)c3cc(S(=O)(=O)O)cc(S(=O)(=O)O)c23)cc1NC(=O)c1cccc(NC(=O)Nc2cccc(C(=O)Nc3cc(C(=O)Nc4ccc(S(=O)(=O)O)c5cc(S(=O)(=O)O)cc(S(=O)(=O)O)c45)ccc3C)c2)c1 [Suramin]	–	–	–	–	–	–	4.5	5.4	4.3	4.0

From US20230330094A1, “COMBINATION COMPOSITIONS AND METHODS FOR TREATING CANCER” (The Board of Supervisors of Louisiana State University and …, priority 2020, published 2023)
